The record followed here is US10752591B2, “18-20 member bi-polycyclic compounds” (Haro Pharmaceutical Inc., priority 2014, dated 2020).

In general, Cmax refers to the peak of the concentration-time curve. The MRT is a mean duration of stay, worked out from the concentration-time curve. Usually Tmax stands for the time at which the peak concentration occurs.

In series [1] the target is T1, purified recombinant human HDAC-6 (Homo sapiens, UniProt Q9UBN7).
T1 construct: purchased Cayman Chem 10009465
T1 sequence (Q9UBN7 1-1215): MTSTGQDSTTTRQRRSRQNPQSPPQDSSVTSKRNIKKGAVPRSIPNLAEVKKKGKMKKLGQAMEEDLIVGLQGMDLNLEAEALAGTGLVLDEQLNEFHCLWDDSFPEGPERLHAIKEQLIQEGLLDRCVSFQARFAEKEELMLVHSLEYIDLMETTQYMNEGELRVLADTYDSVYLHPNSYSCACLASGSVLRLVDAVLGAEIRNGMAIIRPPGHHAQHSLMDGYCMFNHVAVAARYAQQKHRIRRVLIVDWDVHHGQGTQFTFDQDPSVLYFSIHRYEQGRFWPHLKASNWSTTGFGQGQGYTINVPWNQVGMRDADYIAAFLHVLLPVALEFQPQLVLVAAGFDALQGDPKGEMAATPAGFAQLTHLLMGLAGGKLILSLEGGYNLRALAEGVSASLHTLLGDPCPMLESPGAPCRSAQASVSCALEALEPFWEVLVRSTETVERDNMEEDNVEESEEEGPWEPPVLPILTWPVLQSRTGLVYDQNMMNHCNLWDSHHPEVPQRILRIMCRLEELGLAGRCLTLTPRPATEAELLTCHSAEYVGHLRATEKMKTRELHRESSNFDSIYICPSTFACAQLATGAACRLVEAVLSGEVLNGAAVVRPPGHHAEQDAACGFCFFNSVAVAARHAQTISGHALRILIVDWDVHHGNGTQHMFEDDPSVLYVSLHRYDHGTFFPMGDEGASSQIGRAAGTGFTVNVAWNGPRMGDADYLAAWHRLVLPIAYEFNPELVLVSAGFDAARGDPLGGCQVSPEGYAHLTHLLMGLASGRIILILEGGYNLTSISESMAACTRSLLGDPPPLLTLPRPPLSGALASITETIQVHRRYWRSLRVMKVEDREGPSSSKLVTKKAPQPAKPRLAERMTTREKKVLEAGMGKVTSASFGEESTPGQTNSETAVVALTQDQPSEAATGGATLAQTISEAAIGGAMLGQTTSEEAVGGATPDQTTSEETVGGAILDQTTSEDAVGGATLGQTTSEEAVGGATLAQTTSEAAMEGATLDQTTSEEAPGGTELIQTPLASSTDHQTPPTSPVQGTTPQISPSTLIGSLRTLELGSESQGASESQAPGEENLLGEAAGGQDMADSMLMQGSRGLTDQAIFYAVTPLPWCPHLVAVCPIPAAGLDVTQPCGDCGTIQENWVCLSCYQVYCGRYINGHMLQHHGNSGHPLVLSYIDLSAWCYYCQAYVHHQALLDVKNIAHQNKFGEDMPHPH
The series is described as follows: HDAC-6 enzymatic inhibition (AMC fluorogenic peptide deacetylation). The class given is biochemical. The note with it: relative to compound 17. On the procedure:
The effect of compounds on the enzymatic activity of purified recombinant human HDAC-1, -2, -3, -6, and -8 activity and of purified rat liver HDAC was examined by measuring the deacetylation of synthetic peptides in various preparations of HDACs. HDAC assays were performed using a two-step enzymatic reaction where enzyme activity is correlated to the release of […] (AMC). AMC fluorescence is measured in a fluorescent plate reading using λex380 nm and λen440 nm.
The reaction was allowed to proceed for 40 min at 37° C., after which developer solution (0.5% trypsin, 10 μM trichostatin A (TSA)) was added to obtain a final concentration of 0.1% trypsin, 2 μM TSA. After 30 minutes at room temperature, the amount of free fluorogenic AMC was measured as described above.

The subject of a further series is RXR. The series is described as follows: RXR-mediated transcription, RXRE luciferase reporter in MCF7 cells. The series is classed as cell-based. The source says:
The effect of various compounds of the invention on RAR-mediated transcription in MCF7 breast cancer cells was examined by measuring their effect on the transcription of a luciferase reporter gene under the control of a TK promoter placed downstream of a RAR response element. In addition, the effect of the compounds on the closely related RXR-mediated transcription was examined by measuring their effect on the transcription of a luciferase reporter gene under the control of a TK promoter placed downstream of a RXR response element.
Typically, 10,000 cells were plated in 96 wells plates in phenol red-free RPMI medium supplemented with 10% charcoal-stripped Fetal Bovine Serum. After 24 hours, cells were transfected with 0.1 μg of luciferase reporter plasmid and 0.01 μg of a reporter plasmid expressing renilla luciferase (RLuc) gene under the control of a SV40 promoter, using Fugene 6 transfection reagent (0.5 μl/well Promega Corporation). Cells were treated in triplicate with compounds or vehicle (DMSO) for 24 hours. Luciferase and renilla luciferase activities were measured using Dual-Glo reagent (Promega Corporation). Luciferase activity was normalized in each well for renilla activity.
(Reporter assays use an easily measured gene product as a stand-in for the process of interest.)

The subject of series [2] is IMR-32 neuroblastoma cells. The series is described as follows: cytotoxicity, cell survival (CellTiterGlo) in IMR-32. The series is classed as cell-based. The note with it: relative to compounds 17 and 8. On the procedure: (§1) The cytotoxicity of compounds was examined and directly compared to compound 17, by measuring cell survival of clonal tumor cell lines IMR-32, BE2C (neuroblastoma), as well as MDA-MB-231, BT20, HCC-38 (Basal) and MCF7 (luminal) breast cancer cells (ATCC). Cells were cultured in phenol red-free RPMI medium supplemented with 10% FBS and 1 mM Ala-Glu. Typically, 10,000-20,000 cells/well were plated in a 96 well plate (Costar 3197). Cells were exposed to compounds or vehicle (1% DMSO final). Cells were maintained in the presence of compound for four or five days. Media and compounds were renewed every 48 hours. Cell survival was measured using the luminescence CellTiterGlo kit (Promega Corporation) and expressed as relative light unit as fold over DMSO.

Series [3] has as its system BE-2C neuroblastoma cells. The experiment in a line: cytotoxicity, cell survival (CellTiterGlo) in BE-2C. The series is classed as cell-based. The note with it: BE-2C cells. On the procedure:
as §1
A general note: ATP-based viability assays read luminescence as a measure of living cells.

Another series is described as follows: mouse pharmacokinetics. The note with it: mice. The series is classed as in vivo. How it is done:
Mouse pharmacokinetics studies were conducted in female athymic nude or male C57/B6 mice (n=3). Due to its very poor aqueous solubility, compound 17 was formulated in 66% PEG-400/33% H2O-1% Tween-80. In contrast compound 13 was formulated in 66% PEG-400/33% H2O. Compounds were administered PO (30 mg/kg) or IV (5 mg/kg), and plasma concentrations were measured by UV/HPLC.

Setting [4] is: PO (30 mg/kg) or IV (5 mg/kg), route per parameter not stated.

Structures are written as SMILES.

In the case of `CC1(C)CCC(C)(C)c2cc(-c3cc4cc(C(=O)NO)ccc4[nH]3)ccc21` [Compound 13], the “fold more potent than compound 17 in HDAC-6 inhibition” value in series [1] was “at least 50”. Besides, the “transcriptional activation of RXR / RXRE-promoter” value in the series with RXR is listed as “none”. For the same compound, the “fold more potent than compounds 17 and 8 in killing IMR-32 cells” value in series [2] is reported as “ten”. Also, the “cytotoxic potency compared with compound 17, SAHA, Ricolinistat” value in series [3] is “more potent than compound 17, SAHA or Ricolinistat”. For the same compound, in the series “mouse pharmacokinetics”, the “T max compared with compound 17” value was “markedly reduced” and the “oral bioavailability, AUC, Cmax compared with compound 17” value is reported as “markedly higher”. Further, in the series “mouse pharmacokinetics” (setting [4]), the “AUC0-∞” value was found to be 42.00 µM·h, the CLp is reported as 0.24 mL/min/kg, the concentration peaked (Cmax) at 5.54 µM and the mean residence time MRT was determined as 6.9 h. In “mouse pharmacokinetics” (setting [4]), the Tmax came to 1.4 h and the “Vd,ss” value is given as 8 L/kg.
